A short description of data set [1]: Pharmacokinetic study of oral co-administration of SK14-061a and ETV in rats. It is filed as in vivo. As to the method: At stipulated times after the administration (15 min, 45 min, 90 min, 3, 6 and 9 hr), venous blood samples were collected by means of a heparinized syringe (0.25ml). The blood samples were centrifuged (3,000 rpm, 10 min) to obtain plasma. […] All data are expressed as the mean ± S.D. Statistical analyses for multiple comparisons were determined by an analysis of variance (two-way ANOVA) using the Bonferroni correction for multiple comparisons. A probability value of p < 0.05 was considered to be significant. A non-compartment model was used for the pharmacokinetic analysis. Parameters were calculated using the program of a moment analysis developed by Tabata et al. Half-life (t1/2) were calculated from the elimination phase. Area under the concentration-time curve (AUC) were calculated using the following equations: AUC=∫0∞Cdt

The subject of a further data set is wild-type HBV. More on the design: method as in PMID 26122273. The note with it: cited from earlier work.
Another data set concerns HBVA181T/N236T. On the set-up: method as in PMID 26122273. To be noted: adefovir dipivoxil-resistant variant; cited from earlier work.
The next data set relates to HBVL180M/S202G/M204V. On the set-up: method as in PMID 26122273. To be noted: entecavir-resistant variant; cited from earlier work.
The mark [2] stands for this setting: rats, p.o., ETV 1 mg/kg alone (SK14-061a (-)).

Where two headings read alike, the source gives them in different places.

In the case of `C=C1[C@H](CO)[C@@H](O)C[C@@H]1n1cnc2c(=O)[nH]c(N)nc21` [ETV, entecavir], in data set [1] (rat, plasma, po, 1 mg/kg), the half-life (usually the time in which the quantity being followed falls by half) is 1.98 ± 0.51 h. Further, in data set [1] (rat, plasma, po, 1 mg/kg, read-out: AUC), the exposure (AUC) – broadly, the area under the concentration-time curve, a measure of exposure – is 492 ± 31.5 ng·h/mL. In data set [1] (rat, plasma, po, 1 mg/kg, read-out: CL/F (converted)), the CL/F is 34 mL/min/kg. Besides, the Cmax (usually the peak of the concentration-time curve) in data set [1] (rat, plasma, po, 1 mg/kg, read-out: Cmax) is 135 ± 27.4 ng/mL. The MRT – broadly, a mean duration of stay, worked out from the concentration-time curve – in data set [1] (rat, plasma, po, 1 mg/kg, read-out: MRT) was 3.24 ± 0.68 h. Besides, the Tmax – broadly, the time at which the peak concentration occurs – in data set [1] (rat, plasma, po, 1 mg/kg, read-out: tmax) amounted to 1.25 ± 0.43 h. Also, in data set [1] (setting [2]), the AUC was 261 ± 16.2 ng·h/mL, the CL/F was determined as 64.2 ± 4.17 mL/min/kg, the Cmax was 147 ± 5.82 ng/mL and the MRT was 1.35 ± 0.03 h. In addition, in data set [1] (setting [2]), the Tmax came out at 0.75 h and the t1/2 came to 0.72 ± 0.05 h.
As to `N#C[C@]1(CO)O[C@@H](n2cnc3c(=O)[nH]c(N)nc32)C[C@@H]1O` [4′-CN-2′-deoxyguanosine], in the data set on wild-type HBV, the “activity against wild-type HBV” value is given as “highly active”. The “activity against HBVA181T/N236T” value with HBVA181T/N236T is listed as “highly active”. Further, in the data set with HBVL180M/S202G/M204V, the “activity against HBVL180M/S202G/M204V” value is listed as “highly active”.

These data come from paper PMC5991393, “Pharmacokinetic properties of a novel inosine analog, 4′-cyano-2′-deoxyinosine, after oral administration in rats” (PLoS ONE, 2018).
